Where a name gives a salt, the structure may show the parent alone.
Columns and labels:
Type in all cases: biochemical, Pseudomonas sp. No. 15-1
[1] = test system: N-acetylhexosamine oxidase; assay: Activity inhibition by metalic ion or inhibitor; conditions: for inhibition of enzyme activity (in words): 1.8mM metalic ion
[2] = test system: N-acetylhexosamine oxidase; assay: Action and specificity for substrate; conditions: in the presence of oxygen
Source text: As shown in the following reaction formula, the present enzyme oxidizes N-acetylhexosamine in the presence of oxygen to form N-acetylhexosaminic acid and hydrogen peroxide.

[3] = test system: N-acetylhexosamine oxidase; assay: Activity stabilization by bovine serum albumin in heat treatment; conditions: 1 mg/ml in potassium phosphate buffer solution of pH 6.8; 10 minutes heat treatment
Method: Further, in 10 minutes heat treatment at 45° C., the present enzyme is stable between pH 3 and pH 9 and loses its activity rapidly at a more acidic region and slowly at a more alkaline region. In this experiment, the hydrogen peroxide method was adopted, and the residual activity of the present enzyme subjected to 10 minutes heat treatment in a potassium phosphate buffer solution of pH 6.8 at each temperature was compared with the residual activity of the same enzyme subjected to the same treatment in a potassium phosphate buffer solution of pH 6.8 containing 1 mg/ml of bovine serum albumin.

[4] = 1.8mM metalic ion or inhibitor, tris-hydrochloric acid buffer solution of pH 7.5
[5] = tris-hydrochloric acid buffer solution of pH 7.5

Molecule | Residual activity (%) [1, 4] [%] | inhibition of enzyme activity (in words) [1, 5] | other results
CC(=O)[O-].CC(=O)[O-].[Pb+2] [Pb(CH3 COO)2] | 42 | considerably | –
O=S(=O)([O-])[O-].[Mn+2] [MnSO4] | 84 | – | –
O=S(=O)([O-])[O-].[Co+2] [CoSO4] | 75 | – | –
HgCl2 | 17 | inhibited greatly | –
O=S(=O)([O-])[O-].[Cd+2] [CdSO4] | 52 | considerably | –
O=S(=O)([O-])[O-].[Fe+2] [FeSO4] | 15 | inhibited greatly | –
CC(=O)N[C@H]1[C@H]([C@H](O)[C@H](O)CO)OC(O)(C(=O)O)C[C@@H]1O (stereo partly shown) [N-acetylneuraminic acid] | – | – | action of the enzyme on the substrate [2]: hardly acts or does not all act
CCCCCCCCCCCCOS(=O)(=O)[O-].[Na+] [SDS, Sodium dodecylsulfate] | 87 | – | –
c1cnc2c(c1)ccc1cccnc12 [O'--Phenanthroline] | 81 | – | –
O=S(=O)([O-])[O-].[Ni+2] [NiSO4] | 64 | considerably | –
O=C(O)c1cc[c]([Hg][Cl])cc1 [PCMB, pChloromercurybenzoate] | 67 | – | –
NC(=O)CI [ICH2 CONH2] | 90 | – | –
O=[N+]([O-])[O-].[Ag+] [AgNO3] | – | – | Residual activity (%) ([1]; 1.8mM, Phosphate buffer solution): 5%
O=S(=O)([O-])[O-].[Zn+2] [ZnSO4] | 2 | inhibited greatly | –
[Ca+2].[Cl-].[Cl-] [CaCl2] | 91 | – | –
O=S(=O)([O-])[O-].[Cu+2] [CuSO4] | 74 | – | –
O=S(=O)([O-])[O-].[Mg+2] [MgSO4] | 86 | – | –
bovine serum albumin | – | – | effect of addition on enzyme activity [3]: stabilized and moreover slightly enhanced
O=C(O)CN(CCN(CC(=O)O)CC(=O)O)CC(=O)O [EDTA, Etheylenediaminetetracetic acid sodium salt] | – | – | Residual activity (%) ([1]; pH 7.5): 87%
